Source: patent US9447418B2, “Pro- and anti-angiogenic treatments” (UNIVERSITY OF BRISTOL, priority 2007, dated 2016)

Experiments:
Format in all cases: cell-based, human
[1] = system: VEGF terminal exon splice site selection; assay: IGF-induced proximal splicing (PSS) in podocytes by RT-PCR and ELISA; settings: for IGF-induced increase in PSS, effect of inhibitor: podocytes
From the text: Treatment of podocytes with IGF increases PSS as evidenced by RT-PCR and ELISA. This increase is inhibited by the PKC inhibitor BIM and the SR protein kinase inhibitor SERPIN340 (FIGS. 12 and 13).

[2] = system: VEGF terminal exon splice site selection; assay: VEGF isoform ELISA of podocytes (PCIP) after growth factor / inhibitor treatment; settings: for increase of VEGFxxxb protein level / increase of total VEGF protein expression: 48 h
Experimental: (§1) Proliferating Conditionally Immortalized Podocytes (PCIPs) were derived from cell lines conditionally transformed from normal human podocytes with temperature-sensitive mutant of immortalized SV-40 (Simian Virus 40) T-antigen. At the permissive temperature of 33° C. the SV-40 T-antigen is active and allows the cells to proliferate rapidly (46). PCIPs were cultured in T75 flasks (Greiner) in RPMI-1640® cell culture medium (Sigma) with 10% FBS (Foetal Bovine Serum), 1% ITS (Insulin Transferrin Selenium) (Sigma), 0.5% PSS (Penicillin Streptomycin Solution) (Sigma) and grown to 95% confluency. Then cells were split to six well plates (1×10^4 cells per well) and grown until 95% confluent.
We investigated time- and dose-dependent effects of Insulin-like Growth Factor 1 (IGF-1), Transforming Growth Factor β1 (TGF-β1) and Platelet-Derived Growth Factor (PDGF) on production of VEGF isoforms from cultured PCIPs. Twenty-four hours before treatment cultured medium was replaced with serum free RPMI-1654 medium (Sigma) containing 1% ITS (Sigma) and 0.5% PSS (Sigma). Subsequently, the medium was replaced with fresh serum free RPMI-1654 medium (Sigma) containing 1% ITS (Sigma), 0.5% PSS (Sigma) and increasing concentrations of IGF-1 (Sigma), or TGF-β1 (Sigma) or 40 ng/mL PDGF (Sigma). The conditioned media were collected 24 or 48 hours after stimulation (IGF-1, TGF-β1) and 48 hours (PDGF).
(§2) Total VEGF concentrations in the neat RPE conditioned medium were measured using a standard DuoSet VEGF ELISA (R&D) according to manufacture's instruction. VEGFxxxb was determined with a similar sandwich ELISA, using for capture a monoclonal biotinylated mouse anti-human antibody raised against the terminal nine amino acids of VEGF165b (R&D Systems Cat No. MVRL56/1) and a standard curve for this assay built with recombinant human VEGF165b (R&D). This MVRL56/1 antibody is a commercially available affinity purified mouse monoclonal IgG1 antibody, that has been characterised previously (42, 54).

[3] = system: VEGF terminal exon splice site selection; assay: Western blotting of podocyte cell lysate
Experimental: as §1
We investigated time- and dose-dependent effects of Insulin-like Growth Factor 1 (IGF-1), Transforming Growth Factor β1 (TGF-β1) and Platelet-Derived Growth Factor (PDGF) on production of VEGF isoforms from cultured PCIPs. Twenty-four hours before treatment cultured medium was replaced with serum free RPMI-1654 medium (Sigma) containing 1% ITS (Sigma) and 0.5% PSS (Sigma). […]
Protein samples were dissolved in Laemmli buffer, boiled for 3-4 min and centrifuged for 2 min at 20,000 g to remove insoluble materials. […] The immunoreactive bands corresponding to panVEGF and VEGFxxxb in each treatment were quantified by ImageJ analysis and normalised to those of β-tubulin.

[4] = system: VEGF terminal exon splice site selection; assay: RT-PCR of podocyte mRNA for proximal (VEGFxxx) and distal (VEGFxxxb) spliced isoforms; settings: podocytes; for TGF-β1 mediated increased intensity of the VEGFxxxb band (RT-PCR), effect of inhibitor: confirmed by Western blotting and ELISA; for TGF-β1 induced VEGFxxxb expression, effect of inhibitor: FIG. 6
Experimental: To confirm that the changes seen by TGF-β1 were at the mRNA level, and the effect of inhibitors acted at the mRNA level, real time polymerase chain reaction (RT-PCR) was carried out using primers that detect both proximal splice isoforms (VEGFxxx, 135 bp band) and distal spliced isoforms (VEGFxxxb, 74 bp band). […] This increase in intensity was inhibited by SB203820, but not by the p42/p44MAPK inhibitor PD98059. […] These findings were confirmed by Western blotting (FIG. 5B) and ELISA (FIG. 5C).

[5] = system: VEGF terminal exon splice site selection; assay: VEGF isoform ELISA of RPE cells after agonist stimulation (IGF-1, TNF-α)
Experimental: Human donor eyes were obtained within 10-30 hours post-mortem from Bristol Eye Bank, Bristol, United Kingdom. Choroid-RPE sheets dissected from ocular globes were fragmented in a small amount of Dulbecco's Modification of Eagle's Medium: Ham's F12 mixture (DMEM: F12) (1:1)+GlutaMAX® supplement (Gibco) and RPE cells were isolated by digestion with 0.3 mg/ml collagenase (Gibco) for 15 min at 37° C. RPE cells were initially cultured for 5 days in the presence of 2.5% v/v foetal bovine serum (FBS) (Gibco) to prevent proliferation of fibroblasts and until the cell cultures became established. After the first passage cell culture was maintained in DMEM:F12 (1:1), supplemented with 10% v/v FBS and antibiotic/antimycotic solution (Sigma). The once passaged cells were homogeneous and contained only RPE as characterized by immunhistochemistry with anti-cytokeratin monoclonal antibody (Sigma). Cultures of RPE were routinely subcultured by trypsinisation (trypsin/EDTA, Sigma). RPE cells at passage 3-4 were plated onto 12.5 cm^2 Petri dishes (Nunc) and allowed to reach 70-80% confluency.
(§3) To determine the effects of agonists the RPE cells were cultured in freshly-replaced medium in the absence of FBS for 24 hours prior to agonist stimulation. IGF-1 (Sigma) and TNF-α (Sigma) were prepared in serum-free medium and were added in the volume of 2 ml at various concentrations, as indicated in the discussion below. No changes in cell morphology were noted on visualisation of the cells after stimulation. 24 hours later conditioned media in all experimental treatments were collected, spun down to remove debris, and placed immediately into −80° C. until the enzyme-linked immuno-sorbent assay (ELISA) was performed. The RPE cells were washed 3 times with ice-cold PBS and lysed in Laemmli buffer for Western blotting.
as §2
Due to relatively low levels of VEGFxxxb found free in the supernatant of RPE cells, for VEGFxxxb ELISA total protein in conditioned medium was precipitated with trichloroacetic acid (TCA). For this purpose 250 μl ice cold 24% TCA and 6.25 μl 2% Sodium Deoxycholate were added to 700 μl conditioned medium and left on ice for 15 min. After centrifugation at 5000×g for 10 min, pellets were collected and resuspended in lysis buffer, containing: 20 mM Tris, pH7.4, 1.5% w/v Triton X-100, 150 mM NaCl, 10% w/v glycerol and protease inhibitors cocktail (Sigma). The pH in the pelleted samples was adjusted to 7.4 with 1.5M Tris (pH8.8). The total protein content in the pellet was measured in conventional manner using bicinchoninic acid (BCA) reagent (Sigma).

[6] = system: VEGF terminal exon splice site selection; assay: Western blotting of RPE cells after IGF-1
Experimental: as §3
Protein samples were dissolved in Laemmli buffer, boiled for 3-4 min and centrifuged for 2 min at 20,000 g to remove insoluble materials. 15 μg protein per lane were separated by Sodium Dodecyl Sulfate Polyacrylamide Gel Electrophoresis (SDS/PAGE) (12%) and transferred to 0.2 μm nitrocellulose membrane. […] Subsequently the membranes were incubated with secondary horseradish peroxidase (HRP) conjugated antibody, and immunoreactive bands were visualised using enhanced chemiluminescence (ECL) reagent (Pierce). […]

[7] = RT-PCR and ELISA (FIGS. 12 and 13)
[8] = podocytes, IGF-1, compared with control (FIG. 2B)

O=C(Nc1cc(C(F)(F)F)ccc1N1CCCCC1)c1ccncc1 [SERPIN340]
IGF-induced increase in PSS, effect of inhibitor [1, 7]: inhibited

C[S+]([O-])c1ccc(-c2nc(-c3ccncc3)c(-c3ccc(F)cc3)[nH]2)cc1 (stereo not shown) [SB203580, reference compound]
TGF-β effect on expression of VEGFxxxb or VEGFxxx isoforms in presence of inhibitor ([2]; podocytes (FIG. 5B)): did not increase expression | expression of VEGFxxx isoforms ([2]; podocytes treated with SB203580, below the detection limit): did not increase | VEGF165b expression ([2]; podocytes treated with SB203580, untreated 850±50 pg/mg protein (FIG. 5A)): 450 ± 80 pg/mg | TGF-β1 upregulation of VEGF165b by Western blotting, effect of inhibitor ([3]; podocytes (FIG. 5C)): inhibited | TGF-β1 mediated increased intensity of the VEGFxxxb band (RT-PCR), effect of inhibitor ([4]; TGF-β1 1 nM): inhibited

TNF-α
decrease of VEGFxxxb isoforms ([5]; RPE cells, 50 ng/ml TNF-α): 46±3% | mean increase of VEGFxxx isoforms ([5]; RPE cells, 50 ng/ml TNF-α, n=3): 4.5±2.0 fold | VEGFxxx isoforms ([5]; RPE cells, 50 ng/ml TNF-α, n=3, untreated 182±83): 825±366 pg/mg protein | VEGFxxxb isoforms ([5]; RPE cells, 50 ng/ml TNF-α, untreated 99±26): 42±13 pg/mg protein

TGF-β1: Transforming Growth Factor β1 (Sigma), growth factor favouring distal splice site selection
fall of VEGFxxx expression levels ([2]; podocytes, 1 nM TGF-β): 70±7% | increase of VEGFxxxb protein level ([2]; podocytes, TGF-β1 0.5 nM): 2.9±1.4 fold | increase of total VEGF protein expression ([2]; podocytes, TGF-β1 0.5 nM): 2.25±0.65 fold | increase of VEGFxxxb protein level ([2]; podocytes, TGF-β1 1 nM): 7.2±4.7 fold | increase of total VEGF protein expression ([2]; podocytes, TGF-β1 1 nM): 4.63±0.61 fold | VEGF165b and VEGF121b isoforms by Western blotting ([3]; podocyte cell lysate, 0.5 and 1 nM TGF-β1 (FIG. 4B)): upregulated | relative density of the lower, VEGFxxxb, band (RT-PCR) ([4]; TGF-β1 1 nM): increase

bisindolyl maleimide [BIM]
IGF-induced increase in PSS, effect of inhibitor [1, 7]: inhibited | VEGF isoform favoured ([1]; summary statement): favoured VEGF165b

IGF-1: Insulin-like Growth Factor 1 (Sigma), growth factor favouring proximal splice site selection
share of VEGF produced as VEGFxxxb ([5]; RPE cells after IGF-1 treatment, originally 80±32%): 5±20% | VEGFtotal ([5]; RPE cells, 100 nM IGF-1, N=6, untreated 217±112): 1656±448 pg/mg protein | VEGFxxxb ([5]; RPE cells, 100 nM IGF-1, untreated 78±12): 64±14 pg/mg protein | VEGFxxx ([5]; RPE cells, 100 nM IGF-1, untreated 138±117): 1592 pg/mg protein | VEGF165b by Western blotting ([6]; 100 nM IGF (FIG. 3A)): downregulated | total VEGF relative to loading control by Western blotting ([6]; 100 nM IGF, β-actin loading control (FIG. 3B)): increase | VEGF165b levels [2, 8]: decrease | total VEGF levels [2, 8]: significant increase | proximal splice site selection (PSS) ([1]; podocytes treated with IGF, RT-PCR and ELISA (FIGS. 12 and 13)): increases

CCN1/C(=C/C(C)=O)Sc2ccc(OC)cc21 [TG003]
TGF-β1 induced VEGFxxxb expression, effect of inhibitor [4]: inhibited | TGF-β1 mediated increased intensity of the VEGFxxxb band (RT-PCR), effect of inhibitor ([4]; TGF-β1 1 nM): inhibited

COc1cccc(-c2cc(=O)c3ccccc3o2)c1N [PD98059]
TGF-β1 induced VEGFxxxb expression, effect of inhibitor [4]: not affected
